Measurements taken from ChEMBL document CHEMBL1201862, “PubChem BioAssay data set” (2004).
Activity calls are given as the source filed them.

Assays:
[1] = target: T1, Rac GTPase-activating protein 1 (Homo sapiens, UniProt Q9H0H5); experiment: blockers of MgcRacGAP-driven Rac1 GTP hydrolysis – biochemical, ADP Hunter fluorescence, primary and confirmatory, confirmation (AID 624330); assay type: functional
T1 sequence (Q9H0H5 whole entry): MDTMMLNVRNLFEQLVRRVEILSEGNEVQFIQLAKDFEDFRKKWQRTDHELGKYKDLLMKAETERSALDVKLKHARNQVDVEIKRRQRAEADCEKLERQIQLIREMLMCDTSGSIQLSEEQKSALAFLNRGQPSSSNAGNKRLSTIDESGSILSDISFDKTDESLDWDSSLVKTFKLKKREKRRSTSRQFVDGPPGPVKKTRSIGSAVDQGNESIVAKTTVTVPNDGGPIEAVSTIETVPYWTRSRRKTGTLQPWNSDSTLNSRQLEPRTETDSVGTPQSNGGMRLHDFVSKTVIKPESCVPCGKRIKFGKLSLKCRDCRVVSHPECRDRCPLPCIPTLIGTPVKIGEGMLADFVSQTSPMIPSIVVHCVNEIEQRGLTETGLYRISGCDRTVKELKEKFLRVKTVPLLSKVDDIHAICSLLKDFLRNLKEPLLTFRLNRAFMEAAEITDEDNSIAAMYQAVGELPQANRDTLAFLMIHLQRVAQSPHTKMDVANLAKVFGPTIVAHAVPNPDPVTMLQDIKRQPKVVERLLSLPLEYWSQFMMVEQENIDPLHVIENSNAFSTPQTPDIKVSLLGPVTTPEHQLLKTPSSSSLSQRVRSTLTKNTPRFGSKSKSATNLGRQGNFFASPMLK

[2] = target: Benomyl/methotrexate resistance protein (Candida albicans, UniProt P28873); experiment: Candida albicans Mdr1 pump inhibition curves – singleplex, Cherry Pick1 hits, dose response (AID 588608); assay type: functional
Chain of Benomyl/methotrexate resistance protein (P28873 whole entry): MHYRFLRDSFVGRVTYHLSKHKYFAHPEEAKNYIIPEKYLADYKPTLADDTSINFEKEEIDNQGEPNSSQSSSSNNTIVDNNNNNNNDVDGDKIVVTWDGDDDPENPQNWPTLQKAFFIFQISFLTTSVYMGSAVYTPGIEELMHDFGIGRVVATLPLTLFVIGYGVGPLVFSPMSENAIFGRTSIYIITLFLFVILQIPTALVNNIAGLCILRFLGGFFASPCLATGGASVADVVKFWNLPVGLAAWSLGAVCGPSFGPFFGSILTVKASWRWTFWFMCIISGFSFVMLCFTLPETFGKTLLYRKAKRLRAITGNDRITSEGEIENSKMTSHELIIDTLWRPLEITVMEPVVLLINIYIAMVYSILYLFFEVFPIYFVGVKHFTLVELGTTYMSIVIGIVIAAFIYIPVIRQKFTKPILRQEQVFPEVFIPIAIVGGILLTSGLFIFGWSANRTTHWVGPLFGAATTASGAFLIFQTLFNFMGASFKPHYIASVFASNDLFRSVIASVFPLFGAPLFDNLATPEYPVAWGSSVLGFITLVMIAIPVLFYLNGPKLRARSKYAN

[3] = target: T2, Zinc finger protein mex-5 (Caenorhabditis elegans, UniProt Q9XUB2); experiment: potency of MEX-5 RNA-binding blockers – biochemical, C. elegans, fluorescence polarization, dose response (AID 1960)
T2 sequence (Q9XUB2 whole entry): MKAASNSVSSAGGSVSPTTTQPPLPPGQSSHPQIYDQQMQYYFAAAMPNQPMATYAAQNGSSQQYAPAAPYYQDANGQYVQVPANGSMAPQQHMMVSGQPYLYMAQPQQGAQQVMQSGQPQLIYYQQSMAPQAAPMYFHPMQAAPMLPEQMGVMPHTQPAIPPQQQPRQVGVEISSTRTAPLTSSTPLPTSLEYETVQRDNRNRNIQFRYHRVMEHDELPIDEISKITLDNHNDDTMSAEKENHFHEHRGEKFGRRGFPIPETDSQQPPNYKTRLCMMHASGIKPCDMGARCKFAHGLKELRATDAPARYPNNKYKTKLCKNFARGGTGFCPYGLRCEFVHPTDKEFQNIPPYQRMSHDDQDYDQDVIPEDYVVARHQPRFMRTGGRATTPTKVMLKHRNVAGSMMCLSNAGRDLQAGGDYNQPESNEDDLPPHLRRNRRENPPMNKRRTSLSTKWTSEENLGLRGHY

Genome polyprotein = Genome polyprotein (dengue virus type 2, UniProt P29990); experiment: flavivirus cap methylation enzyme inhibition – biochemical, confirmation dose response, primary screen (AID 588689); assay type: functional
Chain of Genome polyprotein (P29990 2492-3391 limits assumed): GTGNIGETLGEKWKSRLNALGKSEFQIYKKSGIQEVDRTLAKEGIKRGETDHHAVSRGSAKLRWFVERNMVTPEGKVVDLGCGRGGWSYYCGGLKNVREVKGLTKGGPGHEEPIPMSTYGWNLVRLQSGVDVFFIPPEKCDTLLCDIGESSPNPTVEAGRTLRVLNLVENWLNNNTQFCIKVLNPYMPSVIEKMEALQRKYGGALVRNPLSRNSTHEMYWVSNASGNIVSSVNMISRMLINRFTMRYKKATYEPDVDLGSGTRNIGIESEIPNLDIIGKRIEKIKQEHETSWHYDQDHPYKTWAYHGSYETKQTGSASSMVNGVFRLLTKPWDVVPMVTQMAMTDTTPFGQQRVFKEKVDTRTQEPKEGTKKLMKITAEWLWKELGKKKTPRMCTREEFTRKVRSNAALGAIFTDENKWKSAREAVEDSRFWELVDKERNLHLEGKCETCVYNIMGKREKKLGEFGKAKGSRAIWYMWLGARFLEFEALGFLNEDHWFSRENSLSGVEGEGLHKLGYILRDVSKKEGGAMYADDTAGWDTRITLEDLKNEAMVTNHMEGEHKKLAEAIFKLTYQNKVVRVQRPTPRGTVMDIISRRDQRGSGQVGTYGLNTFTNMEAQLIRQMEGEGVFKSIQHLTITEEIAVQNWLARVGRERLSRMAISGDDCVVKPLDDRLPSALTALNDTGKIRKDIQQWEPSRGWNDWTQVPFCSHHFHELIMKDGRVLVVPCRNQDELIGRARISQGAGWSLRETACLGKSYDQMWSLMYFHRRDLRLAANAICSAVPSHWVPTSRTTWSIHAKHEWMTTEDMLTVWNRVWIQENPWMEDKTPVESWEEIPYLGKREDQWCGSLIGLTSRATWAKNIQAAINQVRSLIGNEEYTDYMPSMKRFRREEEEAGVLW

[4] = target: 72 kDa type IV collagenase (Homo sapiens, UniProt P08253); experiment: Dose Response validation of uHTS RPN11 inhibitor hits using a MMP-2 Fluorescence assay.; assay type: functional
Chain of 72 kDa type IV collagenase (P08253 whole entry): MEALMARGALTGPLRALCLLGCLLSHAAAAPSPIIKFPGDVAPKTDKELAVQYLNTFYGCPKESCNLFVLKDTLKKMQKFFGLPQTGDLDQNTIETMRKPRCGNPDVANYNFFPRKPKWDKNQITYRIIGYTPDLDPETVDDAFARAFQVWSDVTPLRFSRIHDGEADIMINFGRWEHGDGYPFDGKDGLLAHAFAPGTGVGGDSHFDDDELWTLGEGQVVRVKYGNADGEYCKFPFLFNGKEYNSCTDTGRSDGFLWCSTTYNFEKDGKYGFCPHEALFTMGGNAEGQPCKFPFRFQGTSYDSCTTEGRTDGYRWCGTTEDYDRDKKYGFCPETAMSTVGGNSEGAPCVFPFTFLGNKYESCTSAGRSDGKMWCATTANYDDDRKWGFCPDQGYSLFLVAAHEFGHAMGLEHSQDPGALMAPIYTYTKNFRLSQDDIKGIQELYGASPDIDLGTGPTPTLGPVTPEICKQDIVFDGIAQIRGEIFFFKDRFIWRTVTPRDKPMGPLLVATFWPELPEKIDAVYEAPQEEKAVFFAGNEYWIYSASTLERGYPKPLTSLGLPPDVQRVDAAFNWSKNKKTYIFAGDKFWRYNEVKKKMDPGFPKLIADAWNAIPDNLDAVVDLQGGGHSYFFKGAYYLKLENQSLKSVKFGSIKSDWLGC

Prothrombin = Prothrombin (Bos taurus, UniProt P00735); experiment: thrombin protease inhibitors – biochemical, fluorescence polarization, uHTS hits, dose response (AID 602369); assay type: functional
[5] = target: T3, Multidrug resistance protein CDR2 (Candida albicans (strain SC5314 / ATCC MYA-2876) (Yeast), UniProt P78595); experiment: inhibition of Nile Red efflux via Candida CDR2 – S. cerevisiae AD1-8u, singleplex, Cherry Pick1 hits, dose response (AID 588604); assay type: functional
T3 sequence (P78595 whole entry): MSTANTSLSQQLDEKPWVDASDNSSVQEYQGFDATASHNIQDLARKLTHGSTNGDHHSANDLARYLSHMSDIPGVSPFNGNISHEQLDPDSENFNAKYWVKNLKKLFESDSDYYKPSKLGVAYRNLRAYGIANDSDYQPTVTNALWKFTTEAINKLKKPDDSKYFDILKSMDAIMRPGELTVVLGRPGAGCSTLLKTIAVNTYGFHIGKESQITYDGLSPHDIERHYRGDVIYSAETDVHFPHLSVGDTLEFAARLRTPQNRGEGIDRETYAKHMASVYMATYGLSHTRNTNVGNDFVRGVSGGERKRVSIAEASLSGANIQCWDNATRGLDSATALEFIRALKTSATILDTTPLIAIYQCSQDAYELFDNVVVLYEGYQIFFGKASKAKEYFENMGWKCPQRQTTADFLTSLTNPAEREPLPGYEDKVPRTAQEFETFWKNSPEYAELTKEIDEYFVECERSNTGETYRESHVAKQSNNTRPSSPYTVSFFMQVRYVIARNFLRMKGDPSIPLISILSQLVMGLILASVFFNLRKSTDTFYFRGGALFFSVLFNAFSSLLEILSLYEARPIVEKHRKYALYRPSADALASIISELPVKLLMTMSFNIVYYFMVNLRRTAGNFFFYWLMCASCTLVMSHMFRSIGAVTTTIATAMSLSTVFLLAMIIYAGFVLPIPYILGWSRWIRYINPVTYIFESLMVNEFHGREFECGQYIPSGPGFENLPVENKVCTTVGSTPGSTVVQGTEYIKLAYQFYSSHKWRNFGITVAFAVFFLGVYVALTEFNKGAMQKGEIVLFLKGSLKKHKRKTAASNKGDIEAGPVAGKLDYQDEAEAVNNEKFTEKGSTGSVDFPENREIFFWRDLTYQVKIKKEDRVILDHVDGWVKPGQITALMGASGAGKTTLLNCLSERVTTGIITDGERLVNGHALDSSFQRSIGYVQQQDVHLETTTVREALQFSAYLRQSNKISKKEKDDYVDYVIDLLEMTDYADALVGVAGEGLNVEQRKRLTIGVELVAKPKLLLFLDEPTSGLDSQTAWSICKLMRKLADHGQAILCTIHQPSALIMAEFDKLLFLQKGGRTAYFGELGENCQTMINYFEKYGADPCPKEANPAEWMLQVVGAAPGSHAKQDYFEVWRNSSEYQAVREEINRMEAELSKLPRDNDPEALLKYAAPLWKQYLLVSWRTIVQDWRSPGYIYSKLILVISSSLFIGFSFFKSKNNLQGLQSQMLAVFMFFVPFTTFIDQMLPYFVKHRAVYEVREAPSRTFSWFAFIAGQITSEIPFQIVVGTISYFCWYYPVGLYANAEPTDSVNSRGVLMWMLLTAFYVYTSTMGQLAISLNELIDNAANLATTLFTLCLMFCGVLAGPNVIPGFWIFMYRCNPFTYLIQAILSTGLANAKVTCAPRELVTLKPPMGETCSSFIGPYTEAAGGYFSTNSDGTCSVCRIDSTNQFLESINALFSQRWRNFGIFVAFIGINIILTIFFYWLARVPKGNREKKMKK

[6] = target: 26S proteasome non-ATPase regulatory subunit 14 (Homo sapiens, UniProt O00487); experiment: inhibition of proteasome subunit RPN11 – biochemical, fluorescence polarization, uHTS hits, confirmation (AID 602368); assay type: functional
Chain of 26S proteasome non-ATPase regulatory subunit 14 (O00487 whole entry, the tested form may be a part): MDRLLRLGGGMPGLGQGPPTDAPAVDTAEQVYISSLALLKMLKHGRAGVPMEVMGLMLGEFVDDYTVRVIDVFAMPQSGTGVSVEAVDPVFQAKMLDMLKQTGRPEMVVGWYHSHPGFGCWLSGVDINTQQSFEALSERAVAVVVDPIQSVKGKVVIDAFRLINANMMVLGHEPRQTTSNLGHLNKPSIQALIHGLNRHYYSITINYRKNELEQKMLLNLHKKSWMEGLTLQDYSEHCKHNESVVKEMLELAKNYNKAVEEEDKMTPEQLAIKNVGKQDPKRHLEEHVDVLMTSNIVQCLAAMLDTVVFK

[7] = target: T4, RNA-binding protein pos-1 (Caenorhabditis elegans, UniProt G5EF15); experiment: disruptors of C. elegans POS-1 RNA interaction – biochemical, fluorescence polarization, dose response (AID 1964);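 further: purified POS-1 fused to maltose binding protein made in E. coli; potency of compounds blocking POS-1 binding to fluorescent RNA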
T4 sequence (G5EF15 whole entry): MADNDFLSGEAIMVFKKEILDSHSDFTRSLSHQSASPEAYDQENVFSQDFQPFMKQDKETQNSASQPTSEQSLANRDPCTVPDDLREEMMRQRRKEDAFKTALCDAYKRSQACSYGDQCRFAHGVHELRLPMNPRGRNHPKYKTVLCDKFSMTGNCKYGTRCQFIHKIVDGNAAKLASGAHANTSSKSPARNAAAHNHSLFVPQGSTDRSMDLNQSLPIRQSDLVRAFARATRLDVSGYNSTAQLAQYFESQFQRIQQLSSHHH

[8] = target: DNA (cytosine-5)-methyltransferase 1 (Homo sapiens, UniProt P26358); experiment: inhibition of DNA methylation by DNMT1 – biochemical, fluorescent molecular beacon, confirmation (AID 602386); assay type: functional
Chain of DNA (cytosine-5)-methyltransferase 1 (P26358 whole entry): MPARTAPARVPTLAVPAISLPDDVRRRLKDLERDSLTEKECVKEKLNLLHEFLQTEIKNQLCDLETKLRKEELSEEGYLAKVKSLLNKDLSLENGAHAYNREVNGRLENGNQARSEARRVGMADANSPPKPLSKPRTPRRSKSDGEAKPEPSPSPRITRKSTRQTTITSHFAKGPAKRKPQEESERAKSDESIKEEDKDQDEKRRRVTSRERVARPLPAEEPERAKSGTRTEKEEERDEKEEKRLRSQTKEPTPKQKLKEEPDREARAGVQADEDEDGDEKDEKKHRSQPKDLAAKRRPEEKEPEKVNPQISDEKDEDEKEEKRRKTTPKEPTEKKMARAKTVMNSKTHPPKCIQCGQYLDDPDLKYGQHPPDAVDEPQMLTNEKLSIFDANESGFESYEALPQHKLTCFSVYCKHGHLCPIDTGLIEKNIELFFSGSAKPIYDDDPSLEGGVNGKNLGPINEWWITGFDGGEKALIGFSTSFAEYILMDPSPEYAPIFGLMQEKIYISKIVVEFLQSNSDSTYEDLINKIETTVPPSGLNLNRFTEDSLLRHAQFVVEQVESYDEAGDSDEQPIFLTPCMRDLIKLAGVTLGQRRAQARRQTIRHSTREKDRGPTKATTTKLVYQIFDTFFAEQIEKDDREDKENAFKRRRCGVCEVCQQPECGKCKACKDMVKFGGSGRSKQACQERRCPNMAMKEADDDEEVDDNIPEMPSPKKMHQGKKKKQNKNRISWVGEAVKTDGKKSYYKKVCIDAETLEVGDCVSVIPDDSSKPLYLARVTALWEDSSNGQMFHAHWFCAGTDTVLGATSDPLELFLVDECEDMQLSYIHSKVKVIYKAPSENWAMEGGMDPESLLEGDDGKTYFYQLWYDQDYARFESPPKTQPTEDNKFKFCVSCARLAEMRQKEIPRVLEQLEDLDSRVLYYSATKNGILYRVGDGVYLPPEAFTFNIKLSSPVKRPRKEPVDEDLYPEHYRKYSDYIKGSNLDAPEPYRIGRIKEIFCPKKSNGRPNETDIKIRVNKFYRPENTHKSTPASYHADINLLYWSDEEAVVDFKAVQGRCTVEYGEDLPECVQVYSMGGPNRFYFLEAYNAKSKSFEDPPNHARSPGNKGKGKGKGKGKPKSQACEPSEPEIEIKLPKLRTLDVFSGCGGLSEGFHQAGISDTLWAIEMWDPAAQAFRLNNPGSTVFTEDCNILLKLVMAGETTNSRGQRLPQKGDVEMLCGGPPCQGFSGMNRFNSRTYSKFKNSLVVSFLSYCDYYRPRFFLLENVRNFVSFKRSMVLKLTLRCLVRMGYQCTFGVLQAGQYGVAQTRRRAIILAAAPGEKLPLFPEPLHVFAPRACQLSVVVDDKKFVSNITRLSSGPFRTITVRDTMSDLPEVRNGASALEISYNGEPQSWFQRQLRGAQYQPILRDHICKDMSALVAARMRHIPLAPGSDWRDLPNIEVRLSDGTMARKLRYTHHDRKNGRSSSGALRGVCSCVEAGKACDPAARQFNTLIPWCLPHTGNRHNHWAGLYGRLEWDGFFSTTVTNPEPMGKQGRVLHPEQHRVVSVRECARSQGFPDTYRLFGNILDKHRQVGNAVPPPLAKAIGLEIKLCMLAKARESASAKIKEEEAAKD

[9] = target: Multidrug resistance protein CDR1 (Candida albicans, UniProt P43071); experiment: inhibition of Nile Red efflux via Candida CDR1 – S. cerevisiae AD1-8u, singleplex, Cherry Pick1 hits, dose response (AID 588606); assay type: functional
[10] = target: T5, High affinity choline transporter 1 (Homo sapiens, UniProt Q9GZV3); experiment: human choline transporter blockers, potency – cell-based, 10-point CRC, membrane potential dye, dose response (AID 588401); assay type: functional;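 further: membrane potential dye fluorescence of choline-evoked depolarization via CHT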
T5 sequence (Q9GZV3 whole entry): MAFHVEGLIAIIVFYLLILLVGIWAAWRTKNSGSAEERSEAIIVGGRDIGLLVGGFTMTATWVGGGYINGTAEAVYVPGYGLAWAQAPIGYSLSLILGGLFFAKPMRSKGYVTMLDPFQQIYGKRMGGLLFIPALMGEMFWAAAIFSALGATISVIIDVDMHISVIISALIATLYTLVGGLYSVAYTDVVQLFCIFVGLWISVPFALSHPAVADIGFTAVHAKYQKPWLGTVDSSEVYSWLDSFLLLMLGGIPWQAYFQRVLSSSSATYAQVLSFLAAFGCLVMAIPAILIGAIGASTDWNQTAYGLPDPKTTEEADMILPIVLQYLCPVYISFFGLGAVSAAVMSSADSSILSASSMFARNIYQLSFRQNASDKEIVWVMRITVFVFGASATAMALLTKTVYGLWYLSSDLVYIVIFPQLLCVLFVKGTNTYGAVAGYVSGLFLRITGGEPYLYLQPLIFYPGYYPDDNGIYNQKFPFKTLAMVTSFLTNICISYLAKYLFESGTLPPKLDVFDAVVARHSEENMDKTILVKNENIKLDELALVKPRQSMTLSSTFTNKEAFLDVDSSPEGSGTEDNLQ

[11] = target: T5, High affinity choline transporter 1; experiment: human choline transporter blockers, potency – cell-based, 5-point CRC, membrane potential dye, dose response (AID 504840); assay type: functional
[12] = target: T6, Apoptotic protease-activating factor 1 (Homo sapiens, UniProt O14727); experiment: SAR analysis of small molecule Activators of Apaf-1 in a Fluorescent assay.; assay type: functional; conditions: read-out: EC50_Mean;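 further: caspase-3 cleavage of fluorogenic Rh110 DEVD substrate downstream of apoptosome activation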
T6 sequence (O14727 whole entry): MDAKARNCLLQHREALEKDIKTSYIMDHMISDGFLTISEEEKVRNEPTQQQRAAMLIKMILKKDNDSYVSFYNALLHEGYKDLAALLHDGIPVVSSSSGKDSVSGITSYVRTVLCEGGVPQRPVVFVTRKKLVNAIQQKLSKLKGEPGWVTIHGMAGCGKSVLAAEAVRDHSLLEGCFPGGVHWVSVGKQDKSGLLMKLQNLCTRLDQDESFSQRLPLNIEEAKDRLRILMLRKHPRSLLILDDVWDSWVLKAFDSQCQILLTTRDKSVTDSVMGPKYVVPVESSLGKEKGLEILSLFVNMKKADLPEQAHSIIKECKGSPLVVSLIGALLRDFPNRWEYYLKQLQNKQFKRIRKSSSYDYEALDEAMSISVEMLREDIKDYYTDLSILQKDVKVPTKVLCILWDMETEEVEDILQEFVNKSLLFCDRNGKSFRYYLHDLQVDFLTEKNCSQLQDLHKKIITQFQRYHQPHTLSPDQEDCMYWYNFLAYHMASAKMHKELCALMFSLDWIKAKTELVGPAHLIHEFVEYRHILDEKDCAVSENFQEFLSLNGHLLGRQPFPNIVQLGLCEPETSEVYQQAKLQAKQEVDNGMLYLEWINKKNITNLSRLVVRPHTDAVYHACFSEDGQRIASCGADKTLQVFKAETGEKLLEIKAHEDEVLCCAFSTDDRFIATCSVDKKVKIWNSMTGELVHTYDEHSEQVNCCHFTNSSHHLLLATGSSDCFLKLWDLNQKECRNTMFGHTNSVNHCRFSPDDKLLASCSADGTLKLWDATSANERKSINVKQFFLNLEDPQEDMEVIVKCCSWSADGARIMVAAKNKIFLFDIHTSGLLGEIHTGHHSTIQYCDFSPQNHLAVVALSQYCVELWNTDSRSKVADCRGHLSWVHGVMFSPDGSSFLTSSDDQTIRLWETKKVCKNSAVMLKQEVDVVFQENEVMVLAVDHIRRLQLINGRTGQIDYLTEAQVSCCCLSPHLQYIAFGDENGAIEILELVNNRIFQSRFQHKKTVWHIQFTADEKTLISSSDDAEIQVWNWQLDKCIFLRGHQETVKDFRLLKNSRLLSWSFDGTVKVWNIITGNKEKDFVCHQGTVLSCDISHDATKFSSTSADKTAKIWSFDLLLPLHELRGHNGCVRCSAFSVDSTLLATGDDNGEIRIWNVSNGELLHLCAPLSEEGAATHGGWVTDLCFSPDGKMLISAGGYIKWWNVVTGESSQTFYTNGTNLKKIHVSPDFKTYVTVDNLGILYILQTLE

`O=C(O)CCN1C(=O)/C(=C/c2ccc(-c3nc4ccccc4s3)o2)SC1=S` was tested. Which IC50 [1] did it give?
Its IC50 is 30.6 µM (active).

And the EC50 [2]?
The EC50 was 0.102 µM (active).

What about the EC50 [3] of the same compound?
Its EC50 is 21.8 µM (active).

What about the IC50 (Genome polyprotein) of the same compound?
Its IC50 is > 100 µM (active).

And the IC50 [4]?
The IC50 was > 100 µM (inactive).

And the IC50 (Prothrombin)?
The IC50 was 5.11 µM (active).

What about the EC50 [5] of the same compound?
The EC50 was 12.1 µM (active).

And the IC50 [6]?
The IC50 was 2.93 µM (active).

And the EC50 [7]?
The EC50 was 32.3 µM (active).

And the IC50 [8]?
Its IC50 is 4.66 µM (active).

And the EC50 [9]?
Its EC50 is 11.2 µM (active).

For `CCc1cc(C(=O)Cc2ccc(F)cc2)c(O)cc1O`, which IC50 [10] is on record?
The IC50 was 4.47 µM (active).

What about the IC50 [11] of the same compound?
Its IC50 is 8.38 µM (active).

With `COc1ccc(C(=O)NCc2cnn(C)c2C)cc1OC1CCN(C(C)C)CC1` as the compound, how does the IC50 [10] read?
The IC50 was 2.38 µM (active).

What about the IC50 [11] of the same compound?
The IC50 was 4.47 µM (active).

With `COc1ccc(Cl)cc1NC(=O)CCS(=O)(=O)c1cc2c(cc1Br)CCN2C(C)=O` as the compound, how does the EC50 [12] read?
Its EC50 is > 100 µM (inactive).
